Experimental data published in patent publication US5208032A, “Increasing the growth of turkeys using implant of 19-nortestosterone” (Rutgers, The State University of New Jersey, priority 1992, dated 1993).

What was measured:
[1] = Comparison of growth on treated male turkeys (Study I, Table V); type: in vivo, Large White Nicholas turkeys; set-up: Abdominal Adipose: unit not given here; conditions: intact male; for Feed/Gain Ratio: n = 4; for Right Breast Muscle (%) / Feed Efficiency / Average Daily Gain (%) / Final 10-Week Body Weight (%) / Abdominal Adipose (%): change vs placebo; for Right Breast Muscle (%) / Average Daily Gain (%) / Final 10-Week Body Weight (%): unsigned (increase); for Feed Efficiency: column head prints (g), cells %; for Abdominal Adipose (%): unsigned (decrease)
Protocol: (§1) The same large white strain of turkey (received 1 day posthatching from Nicholas Breeding Farms, CA) was used in all studies. Poults were reared in deep litter brooder pens from 1 day posthatch and exposed to constant light until initiation of Studies I and III or through completion in the case of Study II. Studies I and III were conducted in an environmentally controlled room (photoperiod 12L:12D) with birds housed individually in wire-floored layer cages (space dimensions of 0.31 W×0.46 L×0.53 H meters per cage). Water and feed (Agway Game and Turkey Starter Crumbles) was available at all times. Turkeys were rank ordered by weight and distributed into treatment groups of equal mean body weights at the start of each Study (I, II and III).
(§2) Body weight determinations were made at the second and final week of each study, and several organs and tissues were excised and immediately weighed at the time of necropsy. Final shank-toe length, as an indicator of skeletal growth, was also determined. Birds were sacrificed via exanguination by laceration of the jugular vein. Specific details on the experimental design and conduct of each turkey study will follow.
At 7 weeks of age, forty-nine male turkeys were rank ordered by weight and assigned to 7 treatment groups ([…]) of equal mean weights. Within treatment groups, two birds were individually caged (layer cages measuring 0.31 W×0.46 L×0.53 H meters/cage) side by side on one of three tiers (5 cages/tier and 3 tiers/rack). […] Individual treatment units (or bird sets) were randomized (planned) into cages among tiers and racks to eliminate any rack (5) or tier (3 vertical) effects within the room.
Group 1 control males were implanted with a 50-mg compressed (methylcellulose/lactose) placebo pellet. The remaining 6 treatment groups were as follows: Group 2, 50-mg testosterone pellet; Group 3, 50-mg 5-alpha-DHT pellet; Group 4, 50-mg 19-nortestosterone pellet; Group 5, 5.0-cm testosterone Silastic polysiloxane capsule; Group 6, 5-cm 5-alpha-DHT Silastic polysiloxane capsule and Group 7, 5.0-cm 19-nortestosterone Silastic polysiloxane capsule. Excluding feed efficiency, data means for all parameters were compared between treatments using individual birds as replicates (n=8). Data means for feed efficiency were compared between treatments using sets of birds as replicates (n=4).

[2] = Comparison of growth in treated female turkeys (Study II, Table IV); type: in vivo, Large White Nicholas turkeys; set-up: Abdominal Adipose: unit not given here; conditions: intact female; for Feed/Gain Ratio: 6 through 9 weeks; for Abdominal Adipose (%) / Feed/Gain Ratio (%) / Average Daily Gain (%) / Final 9-Week Body Weight (%) / Right Breast Muscle (%): change vs placebo; for Abdominal Adipose (%) / Feed/Gain Ratio (%): unsigned (decrease); for Average Daily Gain (%) / Final 9-Week Body Weight (%) / Right Breast Muscle (%): unsigned (increase)
Protocol: as §1, §2
At 6 weeks of age, seventy-seven female turkeys were rank ordered by weight and assigned to 7 treatment groups (11 birds per group) of equal mean weights. Within treatment groups, birds were further allotted to deep-litter pens (3.66×4.27 m) containing 4 subdivisions (0.91×1.22 m), with 3 birds per subdivision except for the last which contained 2. Individual treatment units (or pen subdivisions) were randomized (planned) among pens within the building, such that each pen contained 4 different treatment units (3 or 2 birds each). Feed consumption for each treatment unit was measured; thus, 4 replicates per treatment for feed consumption and feed/gain ratios (or feed efficiency) were calculated.
Treatments entailed the subcutaneous implantation (between the shoulders) of testosterone, 5-alpha-DHT or 19-nortestosterone as either a low (5-mg) or high (50-mg) dose pellet (Innovative Research of America, Rockville, Md.). Implants were specially constructed (steroid compressed into a methylcellulose/lactose pellet) to release respective steroids at a constant rate over a 21 day period (manufacturer statement). In support, a recent report by Satyaswaroop et al. (1984) on mice, found Innovative Research 17 beta-estradiol pellets to have excellent 21-day continued release characteristics (i.e., maintained blood levels of 20-30 ng/ml for 21 days). Group 1 controls were composed of females implanted with a 50-mg placebo pellet. The remaining 6 female treatment groups were as follows: Group 2, testosterone (5-mg); Group 3, 5-alpha-DHT (5-mg); Group 4, 19-nortestosterone (5-mg); Group 5, testosterone (50-mg); Group 6, 5-alpha-DHT (50-mg) and Group 7, 19-nortestosterone (50-mg). Excluding feed efficiency, data means for all other parameters were compared between treatments using individual birds as replicates (n=11). Data means for feed consumption and feed efficiency were compared between treatments using pen subdivisions (3 or 2 birds/subdivision) as replicates (n=8).
^a 5 or 50mg slow release pellets (Innovative Research) administered
subcutaneously at 6 weeks of age.
^b Data for Feed to Gain Ratio is computed for the period 6 through 9
weeks of age. Experimental units are floor pens (n = 4) of […]
values are means and SEM of the pen averages.

C[C@]12CC[C@H]3[C@@H](CCC4=CC(=O)CC[C@@]43C)[C@@H]1CC[C@@H]2O [Testosterone, testosterone]
Abdominal Adipose ([1]; 5-cm Silastic capsule): 13.2 ± 3.57
Average Daily Gain ([1]; 5-cm Silastic capsule): 115 ± 2 g
Final 10-Week Body Weight ([1]; 5-cm Silastic capsule): 5055 ± 61 g
Final 10-Week Shank-Toe Length ([1]; 5-cm Silastic capsule): 24.2 ± 0.18 cm
Right Breast Muscle ([1]; 5-cm Silastic capsule): 457 ± 20 g
Feed/Gain Ratio ([1]; 5-cm Silastic capsule): 2.39 ± 0.088
Abdominal Adipose ([1]; 50-mg pellet): 11.61 ± 1.37
Average Daily Gain ([1]; 50-mg pellet): 116 ± 4 g
Final 10-Week Body Weight ([1]; 50-mg pellet): 5100 ± 82 g
Final 10-Week Shank-Toe Length ([1]; 50-mg pellet): 23.6 ± 0.19 cm
Right Breast Muscle ([1]; 50-mg pellet): 450 ± 10 g
Feed/Gain Ratio ([1]; 50-mg pellet): 2.37 ± 0.086
Abdominal Adipose ([2]; 5-mg pellet): 20.2
Average Daily Gain ([2]; 5-mg pellet): 108 ± 2 g
Final 9-Week Body Weight ([2]; 5-mg pellet): 4096 ± 65 g
Final 9-Week Shank-Toe Length ([2]; 5-mg pellet): 18.9 ± 0.16 cm
Right Breast Muscle ([2]; 5-mg pellet): 430 ± 15 g
Feed/Gain Ratio ([2]; 5-mg pellet): 2.01 ± 0.05
Abdominal Adipose (%) ([2]; 5-mg pellet): 32%
Abdominal Adipose ([2]; 50-mg pellet): 22.8
Average Daily Gain ([2]; 50-mg pellet): 119 ± 3 g
Final 9-Week Body Weight ([2]; 50-mg pellet): 4320 ± 69 g
Final 9-Week Shank-Toe Length ([2]; 50-mg pellet): 18.6 ± 0.13 cm
Right Breast Muscle ([2]; 50-mg pellet): 477 ± 17 g
Feed/Gain Ratio ([2]; 50-mg pellet): 1.91 ± 0.04
Abdominal Adipose (%) ([2]; 50-mg pellet): 23%
Feed/Gain Ratio (%) ([2]; 50-mg pellet): 9.5%
Average Daily Gain (%) ([2]; 50-mg pellet): 15.5%
Final 9-Week Body Weight (%) ([2]; 50-mg pellet): 7.7%
Right Breast Muscle (%) ([2]; 50-mg pellet): 22.3%

C[C@]12CCC(=O)C[C@@H]1CC[C@@H]1[C@@H]2CC[C@]2(C)[C@@H](O)CC[C@@H]12 [5-alpha-DHT, 5-alpha-dihydrotestosterone]
Abdominal Adipose ([1]; 5-cm Silastic capsule): 12.2 ± 1.44
Average Daily Gain ([1]; 5-cm Silastic capsule): 113 ± 3 g
Final 10-Week Body Weight ([1]; 5-cm Silastic capsule): 4985 ± 60 g
Final 10-Week Shank-Toe Length ([1]; 5-cm Silastic capsule): 24.4 ± 0.15 cm
Right Breast Muscle ([1]; 5-cm Silastic capsule): 465 ± 17 g
Feed/Gain Ratio ([1]; 5-cm Silastic capsule): 2.30 ± 0.120
Right Breast Muscle (%) ([1]; 5-cm capsule): 8.4%
Feed Efficiency ([1]; 5-cm capsule): 9.4%
Abdominal Adipose ([1]; 50-mg pellet): 9.53 ± 1.12
Average Daily Gain ([1]; 50-mg pellet): 120 ± 3 g
Final 10-Week Body Weight ([1]; 50-mg pellet): 5202 ± 44 g
Final 10-Week Shank-Toe Length ([1]; 50-mg pellet): 24.3 ± 0.28 cm
Right Breast Muscle ([1]; 50-mg pellet): 460 ± 10 g
Feed/Gain Ratio ([1]; 50-mg pellet): 2.33 ± 0.079
Average Daily Gain (%) ([1]; 50-mg pellet): 10.1%
Final 10-Week Body Weight (%) ([1]; 50-mg pellet): 6.0%
Right Breast Muscle (%) ([1]; 50-mg pellet): 7.2%
Abdominal Adipose ([2]; 5-mg pellet): 21.4
Average Daily Gain ([2]; 5-mg pellet): 106 ± 2 g
Final 9-Week Body Weight ([2]; 5-mg pellet): 4073 ± 72 g
Final 9-Week Shank-Toe Length ([2]; 5-mg pellet): 18.6 ± 0.21 cm
Right Breast Muscle ([2]; 5-mg pellet): 415 ± 7 g
Feed/Gain Ratio ([2]; 5-mg pellet): 2.03 ± 0.03
Abdominal Adipose (%) ([2]; 5-mg pellet): 28%
Abdominal Adipose ([2]; 50-mg pellet): 20.2
Average Daily Gain ([2]; 50-mg pellet): 121 ± 3 g
Final 9-Week Body Weight ([2]; 50-mg pellet): 4365 ± 84 g
Final 9-Week Shank-Toe Length ([2]; 50-mg pellet): 18.79 ± 0.25 cm
Right Breast Muscle ([2]; 50-mg pellet): 487 ± 13 g
Feed/Gain Ratio ([2]; 50-mg pellet): 1.82 ± 0.03
Abdominal Adipose (%) ([2]; 50-mg pellet): 32%
Feed/Gain Ratio (%) ([2]; 50-mg pellet): 13.7%
Average Daily Gain (%) ([2]; 50-mg pellet): 17.5%
Final 9-Week Body Weight (%) ([2]; 50-mg pellet): 8.9%
Right Breast Muscle (%) ([2]; 50-mg pellet): 24.9%

C[C@]12CC[C@H]3[C@@H](CCC4=CC(=O)CC[C@@H]43)[C@@H]1CC[C@@H]2O [19-Nortestosterone, 19-nortestosterone]
Abdominal Adipose ([1]; 5-cm Silastic capsule): 7.88 ± 2.10
Average Daily Gain ([1]; 5-cm Silastic capsule): 131 ± 3 g
Final 10-Week Body Weight ([1]; 5-cm Silastic capsule): 5410 ± 73 g
Final 10-Week Shank-Toe Length ([1]; 5-cm Silastic capsule): 23.5 ± 0.15 cm
Right Breast Muscle ([1]; 5-cm Silastic capsule): 513 ± 15 g
Feed/Gain Ratio ([1]; 5-cm Silastic capsule): 1.94 ± 0.041
Abdominal Adipose (%) ([1]; 5-cm capsule): 52.8%
Average Daily Gain (%) ([1]; 5-cm capsule): 20.2%
Final 10-Week Body Weight (%) ([1]; 5-cm capsule): 10.2%
Right Breast Muscle (%) ([1]; 5-cm capsule): 12.6%
Feed Efficiency ([1]; 5-cm capsule): 23.6%
Abdominal Adipose ([1]; 50-mg pellet): 6.74 ± 1.57
Average Daily Gain ([1]; 50-mg pellet): 132 ± 6 g
Final 10-Week Body Weight ([1]; 50-mg pellet): 5416 ± 136 g
Final 10-Week Shank-Toe Length ([1]; 50-mg pellet): 23.3 ± 0.22 cm
Right Breast Muscle ([1]; 50-mg pellet): 529 ± 22 g
Feed/Gain Ratio ([1]; 50-mg pellet): 1.99 ± 0.091
Abdominal Adipose (%) ([1]; 50-mg pellet): 59.6%
Average Daily Gain (%) ([1]; 50-mg pellet): 21.1%
Final 10-Week Body Weight (%) ([1]; 50-mg pellet): 10.3%
Right Breast Muscle (%) ([1]; 50-mg pellet): 23.3%
Feed Efficiency ([1]; 50-mg pellet): 21.6%
Abdominal Adipose ([2]; 5-mg pellet): 22.8
Average Daily Gain ([2]; 5-mg pellet): 108 ± 3 g
Final 9-Week Body Weight ([2]; 5-mg pellet): 4115 ± 122 g
Final 9-Week Shank-Toe Length ([2]; 5-mg pellet): 18.87 ± 0.25 cm
Right Breast Muscle ([2]; 5-mg pellet): 439 ± 15 g
Feed/Gain Ratio ([2]; 5-mg pellet): 1.92 ± 0.04
Abdominal Adipose (%) ([2]; 5-mg pellet): 23%
Feed/Gain Ratio (%) ([2]; 5-mg pellet): 9.0%
Right Breast Muscle (%) ([2]; 5-mg pellet): 12.6%
Abdominal Adipose ([2]; 50-mg pellet): 18.7
Average Daily Gain ([2]; 50-mg pellet): 127 ± 3 g
Final 9-Week Body Weight ([2]; 50-mg pellet): 4476 ± 94 g
Final 9-Week Shank-Toe Length ([2]; 50-mg pellet): 18.31 ± 0.24 cm
Right Breast Muscle ([2]; 50-mg pellet): 493 ± 17 g
Feed/Gain Ratio ([2]; 50-mg pellet): 1.76 ± 0.07
Abdominal Adipose (%) ([2]; 50-mg pellet): 37%
Feed/Gain Ratio (%) ([2]; 50-mg pellet): 16.6%
Average Daily Gain (%) ([2]; 50-mg pellet): 23.3%
Final 9-Week Body Weight (%) ([2]; 50-mg pellet): 11.6%
Right Breast Muscle (%) ([2]; 50-mg pellet): 26.4%
